Assay results as given in paper PMC6219668 (Oncotarget, 2018).
Where two headings read alike, the source gives them in different places.

Tested on: panel of nearly 500 cancer cell lines
Assay: Cancer Cell Line Encyclopedia profiling, 3-day CellTiter-Glo
Type: cell-based
Conditions: read-out: IC50

`CC(=O)c1c(C)c2cnc(Nc3ccc(N4CCNCC4)cn3)nc2n(C2CCCC2)c1=O` [Palbociblib] gave an IC50 (22rv1 (prostate)) greater than 8 µM, an IC50 (639v (urinary_tract)) greater than 8 µM and an IC50 (769p (kidney)) of 6.7 µM. For the same compound, the IC50 (5637 (urinary_tract)) was greater than 8 µM, the IC50 (8305c (thyroid)) was 5.34 µM and the IC50 (8505c (thyroid)) was greater than 8 µM. For the same compound, the IC50 (a172 (central_nervous_system)) was greater than 8 µM, the IC50 (a204 (soft_tissue)) was greater than 8 µM and the IC50 (a253 (salivary_gland)) was greater than 8 µM. It also gave an IC50 (a375 (skin)) greater than 8 µM, an IC50 (a549 (lung)) greater than 8 µM and an IC50 (a673 (bone)) greater than 8 µM. It also gave an IC50 (a2058 (skin)) greater than 8 µM, an IC50 (a2780 (ovary)) greater than 8 µM and an IC50 (amo1 (haematopoietic_and_lymphoid_tissue)) greater than 8 µM. The IC50 (an3ca (endometrium)) was 7.05 µM, the IC50 (aspc1 (pancreas)) was greater than 8 µM and the IC50 (au565 (breast)) was 7.56 µM. The IC50 (az521 (stomach)) was greater than 8 µM, the IC50 (bdcm (haematopoietic_and_lymphoid_tissue)) was 1.92 µM and the IC50 (bftc909 (kidney)) was greater than 8 µM. It also gave an IC50 (bgc823 (stomach)) greater than 8 µM, an IC50 (bl41 (haematopoietic_and_lymphoid_tissue)) greater than 8 µM and an IC50 (bl70 (haematopoietic_and_lymphoid_tissue)) of 4.53 µM. For the same compound, the IC50 (bt20 (breast)) was greater than 8 µM, the IC50 (bt474 (breast)) was greater than 8 µM and the IC50 (bt549 (breast)) was greater than 8 µM. The IC50 (c2bbe1 (large_intestine)) was greater than 8 µM, the IC50 (c3a (liver)) was greater than 8 µM and the IC50 (c32 (skin)) was greater than 8 µM. For the same compound, the IC50 (caki2 (kidney)) was greater than 8 µM, the IC50 (cal27 (upper_aerodigestive_tract)) was greater than 8 µM and the IC50 (cal78 (bone)) was greater than 8 µM. The IC50 (cal851 (breast)) was greater than 8 µM, the IC50 (calu1 (lung)) was greater than 8 µM and the IC50 (calu3 (lung)) was greater than 8 µM. It also gave an IC50 (cama1 (breast)) greater than 8 µM, an IC50 (capan2 (pancreas)) greater than 8 µM and an IC50 (cas1 (central_nervous_system)) greater than 8 µM. For the same compound, the IC50 (cell line tyknu, ovary) was greater than 8 µM, the IC50 (cell line u87mg, central_nervous_system) was greater than 8 µM and the IC50 (cell line u118mg, central_nervous_system) was greater than 8 µM. The IC50 (cell line u2os, bone) was greater than 8 µM, the IC50 (cell line u937, haematopoietic_and_lymphoid_tissue) was greater than 8 µM and the IC50 (cell line uacc812, breast) was greater than 8 µM. The IC50 (cell line umuc3, urinary_tract) was greater than 8 µM, the IC50 (cell line vmrclcd, lung) was 1.86 µM and the IC50 (cell line vmrcrcw, kidney) was greater than 8 µM. For the same compound, the IC50 (cell line vmrcrcz, kidney) was greater than 8 µM, the IC50 (cell line ykg1, central_nervous_system) was 7.34 µM and the IC50 (cell line zr7530, breast) was greater than 8 µM. The IC50 (chl1 (skin)) was greater than 8 µM, the IC50 (ci1 (haematopoietic_and_lymphoid_tissue)) was 6.5 µM and the IC50 (cmk (haematopoietic_and_lymphoid_tissue)) was 5.49 µM. For the same compound, the IC50 (colo201 (large_intestine)) was 1.48 µM, the IC50 (colo205 (large_intestine)) was 7.19 µM and the IC50 (colo320 (large_intestine)) was 6.83 µM. The IC50 (colo679 (skin)) was greater than 8 µM, the IC50 (corl23 (lung)) was greater than 8 µM and the IC50 (corl23cpr (lung)) was greater than 8 µM. For the same compound, the IC50 (cov318 (ovary)) was greater than 8 µM, the IC50 (cov504 (ovary)) was greater than 8 µM and the IC50 (daoy (central_nervous_system)) was greater than 8 µM. It also gave an IC50 (dbtrg05mg (central_nervous_system)) greater than 8 µM, an IC50 (detroit562 (upper_aerodigestive_tract)) of 3.17 µM and an IC50 (dkmg (central_nervous_system)) greater than 8 µM. The IC50 (dms114 (lung)) was greater than 8 µM, the IC50 (dov13 (ovary)) was greater than 8 µM and the IC50 (du145 (prostate)) was greater than 8 µM. It also gave an IC50 (eb1 (haematopoietic_and_lymphoid_tissue)) greater than 8 µM, an IC50 (eb2 (haematopoietic_and_lymphoid_tissue)) greater than 8 µM and an IC50 (ebc1 (lung)) greater than 8 µM. The IC50 (efe184 (endometrium)) was greater than 8 µM, the IC50 (efm19 (breast)) was greater than 8 µM and the IC50 (efo21 (ovary)) was greater than 8 µM. It also gave an IC50 (efo27 (ovary)) greater than 8 µM, an IC50 (en (endometrium)) greater than 8 µM and an IC50 (es2 (ovary)) greater than 8 µM. For the same compound, the IC50 (fadu (upper_aerodigestive_tract)) was greater than 8 µM, the IC50 (fuov1 (ovary)) was greater than 8 µM and the IC50 (g361 (skin)) was greater than 8 µM. The IC50 (g401 (soft_tissue)) was greater than 8 µM, the IC50 (gb1 (central_nervous_system)) was greater than 8 µM and the IC50 (gciy (stomach)) was greater than 8 µM. It also gave an IC50 (gct (soft_tissue)) of 4.08 µM, an IC50 (glc82 (lung)) greater than 8 µM and an IC50 (gms10 (central_nervous_system)) greater than 8 µM. For the same compound, the IC50 (h4 (central_nervous_system)) was greater than 8 µM, the IC50 (hcc15 (lung)) was greater than 8 µM and the IC50 (hcc56 (large_intestine)) was greater than 8 µM. It also gave an IC50 (hcc70 (breast)) greater than 8 µM, an IC50 (hcc78 (lung)) greater than 8 µM and an IC50 (hcc1187 (breast)) greater than 8 µM. For the same compound, the IC50 (hcc1569 (breast)) was greater than 8 µM, the IC50 (hcc1806 (breast)) was greater than 8 µM and the IC50 (hcc1954 (breast)) was 2.51 µM. It also gave an IC50 (hcc2935 (lung)) greater than 8 µM, an IC50 (hcc4006 (lung)) greater than 8 µM and an IC50 (hct15 (large_intestine)) greater than 8 µM. The IC50 (hct116 (large_intestine)) was greater than 8 µM, the IC50 (hec1a (endometrium)) was greater than 8 µM and the IC50 (hec1b (endometrium)) was 4.96 µM. The IC50 (hec59 (endometrium)) was greater than 8 µM, the IC50 (hec151 (endometrium)) was greater than 8 µM and the IC50 (hec251 (endometrium)) was greater than 8 µM. For the same compound, the IC50 (hec265 (endometrium)) was greater than 8 µM, the IC50 (hel9217 (haematopoietic_and_lymphoid_tissue)) was greater than 8 µM and the IC50 (hep3b217 (liver)) was greater than 8 µM. The IC50 (hepg2 (liver)) was greater than 8 µM, the IC50 (heya8 (ovary)) was greater than 8 µM and the IC50 (hgc27 (stomach)) was 1.74 µM. The IC50 (hh (haematopoietic_and_lymphoid_tissue)) was greater than 8 µM, the IC50 (hle (liver)) was greater than 8 µM and the IC50 (hlf (liver)) was greater than 8 µM. The IC50 (hmc18 (breast)) was greater than 8 µM, the IC50 (hmcb (skin)) was greater than 8 µM and the IC50 (hos (bone)) was greater than 8 µM. The IC50 (hpac (pancreas)) was greater than 8 µM, the IC50 (hs229t (lung)) was greater than 8 µM and the IC50 (hs294t (skin)) was greater than 8 µM. The IC50 (hs578t (breast)) was greater than 8 µM, the IC50 (hs683 (central_nervous_system)) was greater than 8 µM and the IC50 (hs695t (skin)) was greater than 8 µM. It also gave an IC50 (hs739t (breast)) greater than 8 µM, an IC50 (hs746t (stomach)) greater than 8 µM and an IC50 (hs766t (pancreas)) greater than 8 µM. For the same compound, the IC50 (hs840t (upper_aerodigestive_tract)) was greater than 8 µM, the IC50 (hs852t (skin)) was greater than 8 µM and the IC50 (hs895t (skin)) was 0.446 µM. It also gave an IC50 (hs936t (skin)) greater than 8 µM, an IC50 (hs939t (skin)) greater than 8 µM and an IC50 (hs944t (skin)) greater than 8 µM. The IC50 (hsc2 (upper_aerodigestive_tract)) was greater than 8 µM, the IC50 (ht29 (large_intestine)) was greater than 8 µM and the IC50 (ht144 (skin)) was greater than 8 µM. For the same compound, the IC50 (ht1080 (soft_tissue)) was greater than 8 µM, the IC50 (ht1197 (urinary_tract)) was greater than 8 µM and the IC50 (ht1376 (urinary_tract)) was greater than 8 µM. For the same compound, the IC50 (ht (haematopoietic_and_lymphoid_tissue)) was greater than 8 µM, the IC50 (hucct1 (biliary_tract)) was greater than 8 µM and the IC50 (huh1 (liver)) was greater than 8 µM. For the same compound, the IC50 (hupt3 (pancreas)) was greater than 8 µM, the IC50 (hupt4 (pancreas)) was greater than 8 µM and the IC50 (hut78 (haematopoietic_and_lymphoid_tissue)) was greater than 8 µM. It also gave an IC50 (ialm (lung)) greater than 8 µM, an IC50 (igr37 (skin)) greater than 8 µM and an IC50 (igr39 (skin)) greater than 8 µM. The IC50 (igrov1 (ovary)) was greater than 8 µM, the IC50 (imr32 (autonomic_ganglia)) was greater than 8 µM and the IC50 (ipc298 (skin)) was greater than 8 µM. For the same compound, the IC50 (istmes1 (pleura)) was greater than 8 µM, the IC50 (istmes2 (pleura)) was 0.428 µM and the IC50 (j82 (urinary_tract)) was greater than 8 µM. For the same compound, the IC50 (jhh2 (liver)) was greater than 8 µM, the IC50 (jhh4 (liver)) was greater than 8 µM and the IC50 (jhh6 (liver)) was greater than 8 µM. The IC50 (jhos2 (ovary)) was greater than 8 µM, the IC50 (jhos4 (ovary)) was greater than 8 µM and the IC50 (jm1 (haematopoietic_and_lymphoid_tissue)) was greater than 8 µM. It also gave an IC50 (jmsu1 (urinary_tract)) greater than 8 µM, an IC50 (k029ax (skin)) greater than 8 µM and an IC50 (kals1 (central_nervous_system)) greater than 8 µM. For the same compound, the IC50 (karpas299 (haematopoietic_and_lymphoid_tissue)) was 7.35 µM, the IC50 (karpas422 (haematopoietic_and_lymphoid_tissue)) was greater than 8 µM and the IC50 (ke39 (stomach)) was 3.54 µM. It also gave an IC50 (ke97 (haematopoietic_and_lymphoid_tissue)) of 2.59 µM, an IC50 (kg1 (haematopoietic_and_lymphoid_tissue)) greater than 8 µM and an IC50 (kle (endometrium)) greater than 8 µM. For the same compound, the IC50 (kmbc2 (urinary_tract)) was greater than 8 µM, the IC50 (kmrc1 (kidney)) was greater than 8 µM and the IC50 (kms12bm (haematopoietic_and_lymphoid_tissue)) was greater than 8 µM. It also gave an IC50 (kms26 (haematopoietic_and_lymphoid_tissue)) of 1.67 µM, an IC50 (kns42 (central_nervous_system)) greater than 8 µM and an IC50 (kns60 (central_nervous_system)) greater than 8 µM. The IC50 (kp1n (pancreas)) was greater than 8 µM, the IC50 (kp1nl (pancreas)) was greater than 8 µM and the IC50 (kp2 (pancreas)) was greater than 8 µM. For the same compound, the IC50 (kp3 (pancreas)) was greater than 8 µM, the IC50 (kp4 (pancreas)) was greater than 8 µM and the IC50 (ku812 (haematopoietic_and_lymphoid_tissue)) was 6.25 µM. It also gave an IC50 (kyse30 (oesophagus)) greater than 8 µM, an IC50 (kyse410 (oesophagus)) greater than 8 µM and an IC50 (kyse520 (oesophagus)) greater than 8 µM. The IC50 (l33 (pancreas)) was greater than 8 µM, the IC50 (lc1sqsf (lung)) was greater than 8 µM and the IC50 (lclc103h (lung)) was greater than 8 µM. For the same compound, the IC50 (ln18 (central_nervous_system)) was greater than 8 µM, the IC50 (ln229 (central_nervous_system)) was greater than 8 µM and the IC50 (lounh91 (lung)) was greater than 8 µM.
